Measured values published in patent US12336982B2 (RODEO THERAPEUTICS CORPORATION, priority 2018, dated 2025).

Biological target: T1, recombinant 15-PGDH (Homo sapiens, UniProt P15428)
T1 sequence (P15428 1-266): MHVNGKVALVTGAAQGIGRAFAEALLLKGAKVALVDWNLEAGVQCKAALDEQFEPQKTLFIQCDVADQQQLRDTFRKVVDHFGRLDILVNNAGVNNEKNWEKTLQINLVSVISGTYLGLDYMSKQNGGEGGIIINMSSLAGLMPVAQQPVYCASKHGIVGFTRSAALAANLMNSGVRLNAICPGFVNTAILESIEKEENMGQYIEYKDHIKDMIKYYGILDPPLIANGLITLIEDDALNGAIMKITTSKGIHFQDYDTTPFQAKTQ
Format: biochemical
Settings: recombinant human 15-PGDH, in vitro; read-out: PDGH Assay-IC50
Description: The Recombinant 15-PGDH is human unless otherwise specified.

Row | SMILES | IC50
1 | COCC[S+]([O-])c1sc2nc(-c3ccc(NC(=O)OC)nc3)cc(-c3cccnc3)c2c1N (centres unmarked) [Example 390] | 2.5 to 10 nM
2 | Cn1cnc(-c2cc(-c3cncnc3)nc3sc([S@+]([O-])C4CCC4)c(N)c23)c1 [Example 64] | < 2.5 nM
3 | Nc1ncc(-c2cc(-c3ncccc3F)c3c(N)c([S+]([O-])C4CCC4)sc3n2)cn1 (centres unmarked) [Example 76] | < 2.5 nM
4 | COC(=O)Nc1ccc(-c2cc(-c3cccnc3)c3c(N)c([S+]([O-])C4CCC4)sc3n2)cn1 (centres unmarked) [Example 100] | < 2.5 nM
5 | CN(C)c1cc(-c2cc(-c3cnc(N)nc3)nc3sc([S@+]([O-])C4CCC4)c(N)c23)n(C)n1 [Example 415] | < 2.5 nM
6 | COCCC[S@@+]([O-])c1sc2nc(-c3cncnc3)cc(-c3ccnc(C)c3)c2c1N [Example 170] | < 2.5 nM
7 | Nc1ncc(-c2cc(-c3cncc(F)c3)c3c(N)c([S+]([O-])C4CCC4)sc3n2)cn1 (centres unmarked) [Example 67] | < 2.5 nM
8 | COCCC[S@@+]([O-])c1sc2nc(-c3cnc4nn(C)cc4c3)cc(C3CCC3)c2c1N [Example 261] | < 2.5 nM
9 | Nc1c([S@+]([O-])C2CCC2)sc2nc(-c3cncnc3)cc(-c3ccnn3C3CC3)c12 [Example 215] | < 2.5 nM
10 | Nc1c([S+]([O-])C2CCC2)sc2nc(-c3cccnc3)cc(C(F)(F)F)c12 (centres unmarked) [Example 58] | < 2.5 nM
11 | Nc1c([S+]([O-])C2CCC2)sc2nc(-c3cnc(NCCN4CCS(=O)(=O)CC4)nc3)cc(-c3ccccc3)c12 (centres unmarked) [Example 142] | < 2.5 nM
12 | CN(C)CCNc1ncc(-c2cc(-c3ccccc3)c3c(N)c([S+]([O-])C4CCC4)sc3n2)cn1 (centres unmarked) [Example 45] | ≥ 10 nM
13 | COCCC[S@+]([O-])c1sc2nc(-c3cncnc3)cc(-c3cnccn3)c2c1N [Example 235] | < 2.5 nM
14 | COCC[S+]([O-])c1sc2nc(-c3cnc4c(c3)ncn4C)cc(-c3ccnn3C)c2c1N (centres unmarked) [Example 379] | < 2.5 nM
15 | Cn1nccc1-c1cc(-c2cnc3ncn(C)c3c2)nc2sc([S@@+]([O-])C3CCC3)c(N)c12 [Example 372] | ≥ 10 nM
16 | COCC[S+]([O-])c1sc2nc(-c3cnc4nn(CCO)cc4c3)cc(-c3ccccc3)c2c1N (centres unmarked) [Example 263] | < 2.5 nM
17 | COCC[S+]([O-])c1sc2nc(-c3cnc4c(c3)nnn4C)cc(-c3ccnn3C)c2c1N (centres unmarked) [Example 324] | < 2.5 nM
18 | COCCC[S@+]([O-])c1sc2nc(-c3cncnc3)cc(-c3ncccn3)c2c1N [Example 112] | ≥ 10 nM
19 | COCC[S+]([O-])c1sc2nc(-c3cnc(N)nc3)nc(-c3ccccc3)c2c1N (centres unmarked) [Example 430] | < 2.5 nM
20 | Cn1ncc(-c2cc(C3CCC3)c3c(N)c([S+]([O-])C4CCC4)sc3n2)cc1=O (centres unmarked) [Example 398] | < 2.5 nM
21 | COCCC[S+]([O-])c1sc2nc(-c3cnc4nn(C)cc4c3)cc(-c3ccccc3)c2c1N (centres unmarked) [Example 123] | < 2.5 nM

Row | SMILES | IC50
22 | COCC[S+]([O-])c1sc2nc(-c3cccnc3)nc(C3CC3)c2c1N (centres unmarked) [Example 190] | < 2.5 nM
23 | Nc1ncc(-c2cc(-c3ncccn3)c3c(N)c([S+]([O-])C4CCC4)sc3n2)cn1 (centres unmarked) [Example 328] | < 2.5 nM
24 | COCCC[S+]([O-])c1sc2nc(-c3cncnc3)cc(-c3ncccn3)c2c1N (centres unmarked) [Example 91] | < 2.5 nM
25 | COCC[S+]([O-])c1sc2nc(-c3ccc(NC(=O)OC)nc3)cc(C3CCC3)c2c1N (centres unmarked) [Example 391] | 2.5 to 10 nM
26 | COCC[S+]([O-])c1sc2nc(-c3cnc4nnn(C)c4c3)cc(C3CCC3)c2c1N (centres unmarked) [Example 368] | < 2.5 nM
27 | COCCC[S+]([O-])c1sc2nc(-c3cnc4nn(C)cc4c3)cc(C3CCC3)c2c1N (centres unmarked) [Example 260] | < 2.5 nM
28 | COCCC[S@+]([O-])c1sc2nc(-c3cnc4nn(C)cc4c3)cc(C3CCC3)c2c1N [Example 262] | ≥ 10 nM
29 | Nc1c([S@+]([O-])C2CCC2)sc2nc(-c3cnc4ncnn4c3)cc(-c3ccccc3)c12 [Example 402] | < 2.5 nM
30 | COCCC[S@+]([O-])c1sc2nc(-c3cnc4c(cnn4C)c3)cc(-c3cccnc3)c2c1N [Example 102] | ≥ 10 nM
31 | Cn1cc(-c2cc(C(F)(F)F)c3c(N)c([S+]([O-])C4CCC4)sc3n2)cn1 (centres unmarked) [Example 428] | < 2.5 nM
32 | Nc1c([S+]([O-])C2CCC2)sc2nc(-c3cnc4c(c3)CNC4=O)cc(-c3ncccn3)c12 (centres unmarked) [Example 304] | 2.5 to 10 nM
33 | Nc1c([S+]([O-])C2CCC2)sc2nc(-c3cnc(N4CC(O)C4)nc3)cc(C3CC3)c12 (centres unmarked) [Example 250] | < 2.5 nM
34 | COCC[S@@+]([O-])c1sc2nc(-c3ccnnc3)cc(-c3ccccc3)c2c1N [Example 211] | < 2.5 nM
35 | Cc1nn(C)cc1-c1cc(-c2cnc(N)nc2)nc2sc([S+]([O-])C3CCC3)c(N)c12 (centres unmarked) [Example 218] | < 2.5 nM
36 | COCCC[S+]([O-])c1sc2nc(-c3cnc(N4CC(O)C4)nc3)cc(-c3ccccc3)c2c1N (centres unmarked) [Example 290] | 2.5 to 10 nM
37 | COC(=O)Nc1ncc(-c2cc(-c3cccnc3)c3c(N)c([S+]([O-])C4CCC4)sc3n2)cn1 (centres unmarked) [Example 117] | 2.5 to 10 nM
38 | COCCn1ccc(-c2cc(-c3cnc4nn(C)cc4c3)nc3sc([S+]([O-])CCOC)c(N)c23)n1 (centres unmarked) [Example 386] | < 2.5 nM
39 | Cn1nccc1-c1cc(-c2cnc3nnn(C)c3c2)nc2sc([S+]([O-])C3CCC3)c(N)c12 (centres unmarked) [Example 370] | < 2.5 nM
40 | COCCC[S+]([O-])c1sc2nc(-c3ccc(=O)n(C)c3)cc(-c3ccccc3)c2c1N (centres unmarked) [Example 161] | < 2.5 nM
41 | CN(CCO)c1ncc(-c2cc(-c3ccccc3)c3c(N)c([S@@+]([O-])C4CCC4)sc3n2)cn1 [Example 180] | ≥ 10 nM

The remaining lines, values ahead:

Row | IC50 | SMILES
42 | < 2.5 nM | Nc1c([S@+]([O-])C2CCC2)sc2nc(-c3cnc(NCCO)nc3)cc(-c3ccccn3)c12 [Example 94]
43 | < 2.5 nM | COCC[S+]([O-])c1sc2nc(-c3cnc4nn(C)cc4c3)cc(C(F)(F)F)c2c1N (centres unmarked) [Example 417]
44 | ≥ 10 nM | COCC[S@+]([O-])c1sc2nc(-c3cnc4ncn(C)c4c3)cc(C3CCC3)c2c1N [Example 367]
45 | < 2.5 nM | Cn1cc2cc(-c3cc(C(F)(F)F)c4c(N)c([S@+]([O-])C5CCC5)sc4n3)cnc2n1 [Example 423]
46 | 2.5 to 10 nM | COCCC[S+]([O-])c1sc2nc(-c3cnc(O)nc3)cc(-c3ccccc3)c2c1N (centres unmarked) [Example 166]
47 | < 2.5 nM | Nc1c([S+]([O-])C2CCC2)sc2nc(-c3cncnc3)cc(C(F)(F)F)c12 (centres unmarked) [Example 204]
48 | < 2.5 nM | COCCC[S@@+]([O-])c1sc2nc(-c3cnc(N)nc3)cc(-c3ccc(F)cc3)c2c1N [Example 62]
49 | 2.5 to 10 nM | Nc1c([S+]([O-])C2CCC2)sc2nc(-c3cnc(NCCO)nc3)cc(-c3ccc(C(F)(F)F)cc3)c12 (centres unmarked) [Example 160]
50 | < 2.5 nM | COCCC[S+]([O-])c1sc2nc(-c3cccnc3)cc(C(F)(F)F)c2c1N (centres unmarked) [Example 56]
51 | < 2.5 nM | COCCC[S@@+]([O-])c1sc2nc(-c3cccnc3)cc(C(F)(F)F)c2c1N [Example 78]
52 | < 2.5 nM | COCC[S+]([O-])c1sc2nc(-c3cnc4c(cnn4C)c3)cc(C3CC3)c2c1N (centres unmarked) [Example 226]
53 | ≥ 10 nM | Nc1c([S@@+]([O-])C2CCC2)sc2nc(-c3cnc(NCCO)nc3)cc(-c3ccccc3)c12 [Example 52]
54 | 2.5 to 10 nM | Nc1ncc(-c2cc(C(F)(F)F)c3c(N)c([S+]([O-])C4CCC4)sc3n2)cn1 (centres unmarked) [Example 429]
55 | < 2.5 nM | COCCC[S+]([O-])c1sc2nc(-c3cncnc3)cc(C3CC3)c2c1N (centres unmarked) [Example 106]
56 | 2.5 to 10 nM | COCC[S+]([O-])c1sc2nc(-c3cncnc3)cc(-c3ccnn3C)c2c1N (centres unmarked) [Example 175]
57 | < 2.5 nM | Cn1nccc1-c1cc(-c2cnc(NCCO)nc2)nc2sc([S+]([O-])C3CCC3)c(N)c12 (centres unmarked) [Example 312]
58 | < 2.5 nM | COCC[S@@+]([O-])c1sc2nc(-c3cnc4c(c3)ncn4C)cc(C3CCC3)c2c1N [Example 374]

Row | IC50 | SMILES
59 | < 2.5 nM | COCCC[S@@+]([O-])c1sc2nc(-c3cncnc3)cc(C(F)(F)F)c2c1N [Example 200]
60 | < 2.5 nM | COCC[S@@+]([O-])c1sc2nc(-c3cnc4ncn(C)c4c3)cc(C3CCC3)c2c1N [Example 366]
61 | < 2.5 nM | CNc1ncc(-c2cc(-c3ccn(C)n3)c3c(N)c([S+]([O-])CCOC)sc3n2)cn1 (centres unmarked) [Example 339]
62 | < 2.5 nM | COCC[S@@+]([O-])c1sc2nc(-c3cnc4nn(C)cc4c3)cc(C(F)(F)F)c2c1N [Example 418]
63 | < 2.5 nM | COCC[S@@+]([O-])c1sc2nc(-c3cnc(NCCO)nc3)cc(C(F)(F)F)c2c1N [Example 206]
64 | ≥ 10 nM | COCC[S@+]([O-])c1sc2nc(-c3cnc4c(c3)ncn4C)cc(C3CCC3)c2c1N [Example 375]
65 | < 2.5 nM | COCC[S+]([O-])c1sc2nc(-c3cnc(NCCO)nc3)cc(-c3ccccc3)c2c1N (centres unmarked) [Example 126]
66 | < 2.5 nM | COCC[S@@+]([O-])c1sc2nc(-c3cncnc3)cc(C3CC3)c2c1N [Example 148]
67 | < 2.5 nM | Nc1c([S+]([O-])C2CCC2)sc2nc(-c3cnc(NCCO)nc3)cc(-c3ccccn3)c12 (centres unmarked) [Example 82]
68 | < 2.5 nM | COCC[S@@+]([O-])c1sc2nc(-c3cnc(N)nc3)cc(C3CC3)c2c1N [Example 150]
69 | < 2.5 nM | COCC[S@@+]([O-])c1sc2nc(-c3cncnc3)cc(C3CCC3)c2c1N [Example 252]
70 | < 2.5 nM | COCC[S+]([O-])c1sc2nc(-c3cnc(N)nc3)cc(C3CC3)c2c1N (centres unmarked) [Example 110]
71 | ≥ 10 nM | Nc1c([S@@+]([O-])C2CCC2)sc2nc(-c3cnc(NCCO)nc3)cc(-c3ncccc3F)c12 [Example 182]
72 | < 2.5 nM | COCC[S+]([O-])c1sc2nc(-c3cnc4ncn(C)c4c3)cc(C3CCC3)c2c1N (centres unmarked) [Example 365]
73 | < 2.5 nM | Nc1c([S+]([O-])C2CCC2)sc2nc(-c3cnc(NCCO)nc3)cc(C3CC3)c12 (centres unmarked) [Example 145]
74 | ≥ 10 nM | Cn1nccc1-c1cc(-c2cnc(NCCO)nc2)nc2sc([S@@+]([O-])C3CCC3)c(N)c12 [Example 314]
